Measurements: paper PMC10974084, “Combination of Betulinic Acid Fragments and Carbonic Anhydrase Inhibitors—A New Drug Targeting Approach” (Pharmaceutics, 2024)
Read-outs that look alike come from different tables or passages of the source.

Legend:
[1] = tested on: A375 melanoma cells; assay: SRB cytotoxicity assay, A375; format: cell-based; conditions: Homo sapiens, read-out: IC50 A375
Experimental: (§1) All of the compounds were dissolved in dimethyl sulfoxide (DMSO) to achieve a 20 mM stock solution. Cells were seeded in cell culture flasks 24 h before treatment. The treatment was performed for 24 h.
(§2) The cytotoxicity of the drugs was determined in 2D tumor models using sulforhodamine B (SRB) assays. Treatment started 24 h after seeding the tumor cells in 96-well plates as previously described.

[2] = tested on: MCF-7 breast cancer cells; assay: SRB cytotoxicity assay, MCF-7; format: cell-based; conditions: Homo sapiens, read-out: IC50 MCF-7
Experimental: as §1, §2

[3] = tested on: A2780 ovarian cancer cells; assay: SRB cytotoxicity assay, A2780; format: cell-based; conditions: Homo sapiens, read-out: IC50 A2780
Experimental: as §1, §2

[4] = tested on: MDA-MB-231 spheroids; assay: Spheroid cytotoxicity assay (luciferase), MDA-MB-231; format: cell-based, human; conditions: read-out: IC50 MDA-MB-231 spheroids
Experimental: (§3) To determine cytotoxicity in the 3D tumor models, spheroid cytotoxicity assays were performed as previously described. […] For generation of single tumor spheroids, tumor cells resuspended in culture medium were seeded into 96-well plates, which were coated before with 0.7% agarose (SeaKem® GTG™ Agarose, Lonza, Basel, Switzerland). After the formation of spheroids (48 h), they were treated with serial dilutions of compounds. Measurements of luciferase activity were performed on day 7, after supplementation with D-luciferin (Perkin Elmer, Rodgau, Germany), on a Tecan Spark microplate reader (Tecan, Männedorf, Switzerland). Generation of dose-response curves and calculation of IC50 values including standard deviations were accomplished using GraphPad Prism8.
(§4) Since the tumor cells stably express luciferase, analysis of spheroid growth and response to therapy is accomplished by measurement of bioluminescent signal intensity.

[5] = tested on: Hs578T spheroids; assay: Spheroid cytotoxicity assay (luciferase), Hs578T; format: cell-based, human; conditions: for IC50: read-out: IC50 Hs578T spheroids; for resistance of Hs578T spheroids versus MDA-MB-231 spheroids: difference of spheroid IC50 values
Experimental: as §3, §4

[6] = tested on: MCF-7 cells; assay: Annexin V / propidium iodide assay, MCF-7; format: cell-based, human; conditions: double the IC50 concentration
Experimental: The Annexin V assays were performed as previously described.
Compounds 3, 5, and 9 were used to study cell death mechanisms and cell cycle analysis. A feature that can be used as it is only characteristic of apoptotic but not necrotic cells is Annexin V staining. During apoptosis, in addition to cell shrinkage, chromatin condensation, and the formation of apoptotic bodies, phosphatidylserine, which is originally inside the membrane, is translocated to the outside. There is a rapid change in phospholipid symmetry in the cell membrane, a process occurring so rapidly that the barrier function of the cell membrane is initially still present. The cellular protein Annexin V can bind to the displaced phosphatidylserine in the presence of calcium. To test for the presence of the cell membrane barrier, the non-membrane-permeable dye propidium iodide was added, which intercalates into the DNA. The flow cytometric data were divided into four areas (live cells, early and late apoptotic cells, and necrotic cells). Untreated cells were used as controls. The results are depicted in Figure 3. […] Even after 48 h, no significant difference between compound 3 and 5 was detected (55–60% live cells, 8% early apoptotic cells, 28–36% late apoptotic cells, 0.5–3% necrotic cells). […] Since both compounds are sulfonamides of betulin, the similar results are not surprising.

[7] = tested on: MCF-7 cells; assay: Cell cycle analysis, MCF-7; format: cell-based, human; conditions: double the IC50 concentration
Experimental: (§5) Cell cycle analyses were performed as previously described.
(§6) Changes in the genetic material and the resulting mutations, which can affect the formation of tumors, usually occur during the proliferation process in the cell. A human cell passes through all four phases of this cell cycle within 20 h, with the set of its chromosomes varying between single and double. During apoptosis, fragmentation of DNA occurs along with an associated decrease in chromosome content. Fixation of cells with ethanol leads to permeabilization of the cell membrane and thus to loss of smaller DNA fragments, so that apoptotic cells contain less than the single set of chromosomes detected by a SubG1 peak. Given the different amounts of DNA in the cells and the proportional binding of propidium iodide to the DNA, the different fluorescence intensities can be used to infer the distribution of cells in the respective phases of the cell cycle.
The MCF-7 breast cancer cell line was used in the experiments. An untreated sample was also included in the cell cycle analysis as a control. The results are depicted in Figure 4.

[8] = tested on: tumor cell lines (2D and 3D tumor models); assay: Cytotoxicity summarised across tumor models; format: cell-based
Experimental: as §2
To determine cytotoxicity in the 3D tumor models, spheroid cytotoxicity assays were performed as previously described. The luciferase-expressing, breast cancer cell lines MDA-MB-231 and Hs578T and derived spheroids were cultivated in RPMI medium (Sigma-Aldrich, Taufkirchen, Germany) containing 10% fetal bovine serum (BioWest, Nuaillé, France) and […] penicillin/streptomycin (Sigma-Aldrich) at 37 °C/5% CO2 in a humid atmosphere. For generation of single tumor spheroids, tumor cells resuspended in culture medium were seeded into 96-well plates, which were coated before with 0.7% agarose (SeaKem® GTG™ Agarose, Lonza, Basel, Switzerland). After the formation of spheroids (48 h), they were treated with serial dilutions of compounds. Measurements of luciferase activity were performed on day 7, after supplementation with D-luciferin (Perkin Elmer, Rodgau, Germany), on a Tecan Spark microplate reader (Tecan, Männedorf, Switzerland). Generation of dose-response curves and calculation of IC50 values including standard deviations were accomplished using GraphPad Prism8.

[9] = target: recombinant human carbonic anhydrase IX (Homo sapiens, UniProt Q16790); assay: hCA IX esterase assay with p-nitrophenyl acetate; conditions: for Ki relative to the unconjugated inhibitors: higher Ki than unconjugated inhibitors
Experimental: In this measurement, the enzymatically catalyzed hydrolysis of p-nitrophenyl acetate to p-nitrophenol was investigated. […] This was followed by measurement of the v-S-characteristics with inhibitor. […] For each run, 2 experimental series (biological replicate) were prepared simultaneously and measured for 10 min at a measurement interval of 8 s, also as a two-fold determination (technical replicate). […] The resulting reaction velocities, calculated from a calibration curve with p-nitrophenole under the same conditions, were plotted against the substrate concentration. The kinetic evaluation for competitive inhibition was then performed with the program GraphPad Prism.

[10] = tested on: A375 cells; assay: Cell cycle analysis, A375; format: cell-based, human; conditions: double the IC50 concentration
Experimental: as §5, §6
In addition, after 48 h of treatment, there was a decrease in the S and M phases for all treatments, which is similar to that noted after 24 h. […] As in the 24 and 48 h tests, there was a decrease in M- and S-phase cells and an increase in G1/G0 phase cells after 72 h compared with the untreated control. Several independent experiments by different groups show similar results with MCF-7 [42, 43, 44]. Due to a lack of DNA fragmentation in MCF-7 cells, the human melanoma cell line A375 was used as a second cell line for comparison (Figure 4d). […] The effect of compound 3 is even more pronounced with an incubation time of 48 or 72 h. An increase in the SubG1 peak was observed from 0.7% in the control to up to 60% after 72 h of treatment.

[11] = Homo sapiens, MDA-MB-231, 168 h
[12] = 7 days of treatment, 3 independent experiments
[13] = A-375, SRB assay, 96 h incubation, mean ± SD
[14] = MCF7, SRB assay, 96 h incubation, mean ± SD
[15] = A2780, SRB assay, 96 h incubation, mean ± SD
[16] = Homo sapiens, MDA-MB-231, 168 h, 7 days of treatment, 3 independent experiments
[17] = Homo sapiens, Hs-578T, 168 h, 7 days of treatment, 3 independent experiments
[18] = Homo sapiens; SRB assays, A375, MCF-7, A2780; read-out: IC50 values (range over cell lines of Table 1)
[19] = Homo sapiens; read-out: cytotoxicity range in 2D and 3D tumor models

SMILES: NS(=O)(=O)c1nnc(NC(=O)CCC(=O)O)s1 [Compound 7, 4 {[5-(Amino sulfonyl)-1,3,4-thiadiazol-2-yl]-amino}-4-oxobutanoic Acid]
- IC50 ([1]; A-375, 96 h): > 100 µM
- IC50 ([2]; MCF7, 96 h): > 100 µM
- IC50 ([3]; A2780, 96 h): > 100 µM
- IC50 [4, 11]: > 100 µM
- IC50 ([5]; Homo sapiens, Hs-578T, 168 h): > 100 µM

SMILES: NS(=O)(=O)c1ccc(NC(=O)Nc2ccc(F)cc2)cc1 [Compound U-104, reference compound]
- IC50 [4, 12]: 33.5 ± 7.6 µM
- IC50 [5, 12]: 83.9 ± 12.4 µM

SMILES: C=C(C)C1CCC2(COC(=O)CCC(=O)O)CCC3(C)C(CCC4C5(C)CCC(OC(C)=O)C(C)(C)C5CCC43C)C12 (stereo not drawn) [Compound 4, 4-{[(3beta)-3-(Acetyloxy)-lup-20(29)-en-28-yl]-oxy}-4-oxobutanoic Acid]
- IC50 [1, 13]: 12.1 ± 1.5 µM
- IC50 [2, 14]: 9.8 ± 0.6 µM
- IC50 [3, 15]: 12.3 ± 3.9 µM
- melting point: 122 to 125 °C

SMILES: C=C(C)C1CCC2(COC(=O)CCC(=O)Nc3nnc(S(N)(=O)=O)s3)CCC3(C)C(CCC4C5(C)CCC(OC(C)=O)C(C)(C)C5CCC43C)C12 (stereo not drawn) [Compound 9, (3β)-3-(Acetyloxy)-lup-20(29)-en-28-yl-4-{[5-(aminosulfonyl)-1,3,4-thiadiazol-2-yl]-amino}-4-oxobutanoate]
- IC50 ([1]; A-375, 96 h): 7.2 ± 0.6 µM
- IC50 ([2]; MCF7, 96 h): 6.2 ± 0.2 µM
- IC50 ([3]; A2780, 96 h): 8.7 ± 2 µM
- IC50 [4, 11]: 8.1 ± 1.4 µM
- IC50 ([5]; Homo sapiens, Hs-578T, 168 h): 28.4 ± 0.3 µM
- resistance of Hs578T spheroids versus MDA-MB-231 spheroids [5]: only about three-fold differences
- effect on cell survival compared to untreated control ([6]; MCF-7, 24 h): no difference
- effect on cell viability (Annexin V) ([6]; MCF-7, 72 h): comparatively smaller decrease in cell viability
- cells in SubG1 phase ([7]; MCF-7, 72 h): 6.5%
- IC50 ([8]; Homo sapiens, read-out: cytotoxicity range in 2D and 3D tumor models): 6.4 to 30.1 µM
- Ki [9]: 1.25 ± 0.25 µM
- Ki relative to the unconjugated inhibitors [9]: approximately 10 fold

SMILES: NS(=O)(=O)c1nnc(NC(=O)CCC(=O)NCCOCCO)s1 [Compound 8, N-[5-(Aminosulfonyl)-1,3,4-thiadiazol-2-yl]-N’-[2-(2-hydroxyethoxy)-ethyl]-succinamide]
- IC50 [1, 13]: > 100 µM
- IC50 [2, 14]: > 100 µM
- IC50 [3, 15]: > 100 µM
- IC50 [4, 16]: > 100 µM
- IC50 [5, 17]: > 100 µM
- Ki [9]: 0.146 µM

SMILES: Nc1nnc(S(N)(=O)=O)s1 [Compound 6, 5-Amino-1,3.4-thiadiazole-2-sulfonamide]
- IC50 [1, 13]: > 100 µM
- IC50 [2, 14]: > 100 µM
- IC50 [3, 15]: > 100 µM

SMILES: C=C(C)C1CCC2(COC(=O)CCC(=O)NCCS(N)(=O)=O)CCC3(C)C(CCC4C5(C)CCC(OC(C)=O)C(C)(C)C5CCC43C)C12 (stereo not drawn) [Compound 5, (3β)-3-(Acetyloxy)-lup-20(29)-en-28-yl 4-{[2-(aminosulfonyl)-ethyl]amino}-4-oxobutanoate]
- IC50 [1, 13]: 9.4 ± 0.5 µM
- IC50 [2, 14]: 8.6 ± 0.7 µM
- IC50 [3, 15]: 11.4 ± 1.4 µM
- IC50 [4, 16]: 10.3 ± 2.7 µM
- IC50 [5, 17]: 30.1 ± 0.7 µM
- resistance of Hs578T spheroids versus MDA-MB-231 spheroids [5]: only about three-fold differences
- late apoptotic cells ([6]; MCF-7, 24 h): 16%
- early apoptotic cells ([6]; MCF-7, 48 h): 8%
- effect on cell viability (Annexin V) ([6]; MCF-7, 72 h): comparably strong effect
- cells in G1/G0 phase ([7]; MCF-7, 48 h): 83.9%
- cells in M phase ([7]; MCF-7, 48 h): 5.8%
- cells in S phase ([7]; MCF-7, 48 h): 1.8%
- cells in SubG1 phase ([7]; MCF-7, 48 h): 8.1%
- cells in SubG1 phase ([7]; MCF-7, 72 h): 12.1%
- IC50 [8, 18]: 6.4 to 11.4 µM
- IC50 [8, 19]: 6.4 to 30.1 µM
- Ki [9]: 1.1 ± 0.31 µM
- Ki relative to the unconjugated inhibitors [9]: approximately 10 fold

SMILES: C=C(C)C1CCC2(C(=O)NCCS(N)(=O)=O)CCC3(C)C(CCC4C5(C)CCC(OC(C)=O)C(C)(C)C5CCC43C)C12 (stereo not drawn) [Compound 3, (3β)-28-{[2-(Aminosulfonyl)-ethyl]-amino}28-oxolup-20(29)-en-3-yl Acetate]
- IC50 [1, 13]: 6.4 ± 0.7 µM
- IC50 [2, 14]: 7.5 ± 0.7 µM
- IC50 [3, 15]: 10.4 ± 0.8 µM
- late apoptotic cells ([6]; MCF-7, 24 h): 16%
- early apoptotic cells ([6]; MCF-7, 48 h): 8%
- early apoptotic cells ([6]; MCF-7, 72 h): 9%
- late apoptotic cells ([6]; MCF-7, 72 h): 53%
- live cells ([6]; MCF-7, 72 h): 34%
- necrotic cells ([6]; MCF-7, 72 h): 4.5%
- cells in SubG1 phase ([7]; MCF-7, 72 h): 8.1%
- cells in G1/G0 phase ([10]; A375, 24 h): 46.9%
- cells in M phase ([10]; A375, 24 h): 15.8%
- cells in S phase ([10]; A375, 24 h): 21.2%
- cells in SubG1 phase ([10]; A375, 24 h): 11.9%
- SubG1 peak ([10]; A375, 72 h, control 0.7%): up to 60%
- IC50 [8, 18]: 6.4 to 11.4 µM
- IC50 [8, 19]: 6.4 to 30.1 µM
- Ki [9]: 1.04 ± 0.39 µM
- Ki relative to the unconjugated inhibitors [9]: approximately 10 fold
